Like-named read-outs stand apart in the source and are kept apart here.
Key:
[1] = test system: Primary human umbilical vein endothelial cells (HUVECs); assay: HUVEC cell proliferation (Celltiter 96 AQueous One Solution assay); assay type: cell-based
Description: Primary human umbilical vein endothelial cells (HUVECs) and EGM-2 growth medium were obtained from Cambrex (Walkersville, Md.). The cells were passaged in medium supplemented with 2% fetal calf serum (FCS) in tissue culture flasks at 37° C. and 5% CO2. Subculturing was performed using trypsin when 60-80% confluence was obtained as specified by the supplier.
Cryopreserved ampoules of passage 2 HUVECs were thawed and plated in 96 well tissue culture plates at 5,000 cells/cm^2. […] In short, medium was aspirated from each well and the cells were washed with 200 μl […] (HBSS) from Cambrex warmed to 37° C. 100 μl diluted celltiter solution (15 μl stock+85 μl EGM-2 containing 0.1% FCS) were added to each well and incubated for an additional 4 hours. Optical density was determined by microplate reader using a 530 nm filter after blank subtraction and data presented as OD±standard deviation.
All data are presented as representative experiment done in triplicate. Differences between subsets were analyzed using student t-test in Microsoft Excel. P<0.05 was considered statistically significant.

HUVECs [2] = assay: HUVEC invasion (BioCoat Matrigel Invasion Chambers); assay type: cell-based, human; conditions: 24 hours
Description: BioCoat Matrigel Invasion Chambers were purchased from BD Biosciences (San Jose, Calif.). Inserts were rehydrated at 37° C. with 500 μl HBSS for 2 hours prior to use in humidified incubator. Trypsinized HUVECs were washed twice with warm EGM-2 containing 0.1% FCS and added to the upper chamber of the invasion insert at 100,000 cells in a total volume of 250 μl. […]. Non-invasive cells were removed from the upper chamber with moistened cotton swabs and then the inserts were washed twice with HBSS. The inserts were then submerged in 10 μM calcein AM prepared in HBSS and incubated for 4 hours. Fluorescence was determined in a microplate reader at 485 nm excitation and 595 nm emission.
All data is presented as representative experiment done in triplicate. Differences between subsets were analyzed using student t-test in Microsoft Excel. P<0.05 was considered statistically significant.

HUVECs [3] = assay: HUVEC scratch migration assay; assay type: cell-based, human; conditions: for Mean pixels (gap): 24 hours, diluent control 1264.00
Description: Passage 8 HUVECs, lot number 8750 (obtained from Lonza), were plated in 6-well plates (ICS BioExpress) in endothelial growth medium-2 (EGM-2) complete medium (obtained from Lonza). […] The monolayers were then “scratched” with a 1000 μl pipet tip and washed two times with warm EGM-2 medium. […] The wells were photographed again. The gaps were measured in each photograph using Adobe Photoshop software, and gap measurements are presented as the number of pixels in the gap.

[4] = test system: Human Brain Endothelial Cells; assay: TER of endothelial cell monolayers (Example 4), brain; assay type: cell-based; conditions: Danazol 1.0 μM, TER measurements/cm^2 of insert, blank subtracted
Description: (§1) […]. Assays were also performed in the same manner using passage 8 human brain endothelial cells and passage 8 human umbilical vein endothelial cells.
(§2) An initial TER measurement was taken for each insert using EVOM^2 voltohmmeter connected to an STX100 electrode (both from World Precision Instruments). Measurements were also taken at 24, 48, 72 and 144 hours. All data are presented as TER measurements/cm^2 of insert with TER of blank inserts subtracted.

[5] = test system: Human Umbilical Vein Endothelial Cells; assay: TER of endothelial cell monolayers (Example 4), umbilical vein; assay type: cell-based; conditions: Danazol 1.0 μM, TER measurements/cm^2 of insert, blank subtracted
Description: as §1, §2

[6] = test system: human retinal endothelial cells; assay: Actin stress fiber formation, rhodamine-phalloidin staining, VEGF (Example 8); assay type: cell-based; conditions: for change of the VEGF stress fiber pattern: then VEGF 25 ng/ml 30 minutes; for F-actin staining pattern: no VEGF
Description: . […] To counter-stain for nuclei, 100 μl of a 3 μM DAPI (4,6-diamidino-2-phenylindole, dilactate (Invitrogen)) solution was added to each well. After 5 minutes, the cells were washed two times with 100 μl PBS.

[7] = test system: human retinal endothelial cells; assay: ECIS resistance (Example 12), retinal cells
[8] = test system: human renal glomerular microvascular endothelial cells; assay: ECIS resistance (Example 12), glomerular cells; conditions: danazol 1 μM alone
[9] = test system: human retinal endothelial cells; assay: Actin stress fiber formation (Example 11), retinal cells; conditions: for F-actin staining pattern: danazol 1 μM alone
[10] = test system: human retinal endothelial cells; assay: Actin stress fiber formation, rhodamine-phalloidin staining, TNFα (Example 7); conditions: 30 minutes
[11] = test system: human retinal endothelial cells; assay: TER of retinal endothelial cell monolayers with danazol, steroid receptor antagonists and hormones (Example 10); conditions: 0.1 μM of each additive, background subtracted, divided by 0.33 cm^2
[12] = Homo sapiens, HUVEC, 24 h, read-out: percent inhibition
[13] = Homo sapiens, HUVEC, 48 h, read-out: percent inhibition
[14] = Homo sapiens, HUVEC, 72 h, read-out: inhibition

C#C[C@]1(O)CC[C@H]2[C@@H]3CCC4=Cc5oncc5C[C@]4(C)[C@H]3CC[C@@]21C [Danazol, 17α-pregna-2,4-dien-20-yno[2,3-d]-isoxazol-17β-ol]
OD ([1]; 0.1 μM danazol, 72 hours, nil wells 1.113±0.054): 0.798±0.037 | OD ([1]; 1 μM danazol, 48 hours, nil 0.629±0.095): 0.378±0.037 | OD ([1]; 1 μM danazol, 72 hours, nil wells 1.113±0.054): 0.484±0.022 | OD ([1]; 10 μM danazol, 24 hours, nil wells 0.414±0.06): 0.288±0.037 | OD ([1]; 10 μM danazol, 48 hours, nil 0.629±0.095): 0.241±0.012 | OD ([1]; 10 μM danazol, 72 hours, nil wells 1.113±0.054): 0.229±0.016 | OD ([1]; 100 μM danazol, 24 hours, nil wells 0.414±0.06): 0.162±0.017 | OD ([1]; 100 μM danazol, 48 hours, nil 0.629±0.095): 0.19±0.033 | OD ([1]; 100 μM danazol, 72 hours, nil wells 1.113±0.054): 0.156±0.018 | effect on cell proliferation ([1]; 100 μM danazol, all time points): complete arrest of cell proliferation | inhibition at 10 µM [1, 12]: 30% | inhibition at 100 µM [1, 12]: 65% | inhibition at 1 µM [1, 13]: 40% | inhibition at 10 µM [1, 13]: 61% | inhibition at 100 µM [1, 13]: 70% | inhibition at 0.1 µM ([1]; Homo sapiens, HUVEC, 72 h): 28% | inhibition at 1 µM [1, 14]: 57% | inhibition at 10 µM [1, 14]: 80% | inhibition at 100 µM [1, 14]: 86% | effect on FCS-induced cell invasion (HUVECs [2]; 10 μM): no effect | effect on FCS-induced cell invasion (HUVECs [2]; 100 μM): no effect | Mean pixels (gap) (HUVECs [3]; Danazol 10 μM): 1004.00 pixels | Mean pixels (gap) (HUVECs [3]; Danazol 25 μM): 1184.00 pixels | Mean pixels (gap) (HUVECs [3]; Danazol 50 μM): 895.33 pixels | Mean pixels (gap) (HUVECs [3]; Danazol 75 μM): 317.33 pixels | Mean pixels (gap) (HUVECs [3]; Danazol 100 μM): 178.67 pixels | inhibition at 10 µM (HUVECs [3]; Homo sapiens, HUVEC, 24 h): 21.1% | inhibition at 25 µM (HUVECs [3]; Homo sapiens, HUVEC, 24 h): 5.5% | inhibition at 50 µM (HUVECs [3]; Homo sapiens, HUVEC, 24 h): 27.6% | inhibition at 75 µM (HUVECs [3]; Homo sapiens, HUVEC, 24 h): 74.6% | inhibition at 100 µM (HUVECs [3]; Homo sapiens, HUVEC, 24 h): 85.9% | TER at 0 Hours ([4]; None 41.4): 32.3 | TER at 24 Hours ([4]; None 115.7): 139.9 | TER at 144 Hours ([4]; None 151.5): 125.8 | TER at 72 Hours ([4]; None 154.0): 149.5 | TER at 48 Hours ([4]; None 176.3): 188.4 | TER at 0 Hours ([5]; None 82.3): 70.2 | TER at 24 Hours ([5]; None 217.2): 246.0 | TER at 72 Hours ([5]; None 226.8): 270.7 | TER at 144 Hours ([5]; None 227.3): 286.4 | TER at 48 Hours ([5]; None 276.3): 364.1 | change of the VEGF stress fiber pattern ([6]; danazol 0.1 μM 30 minutes): made the stress fibers less pronounced and some diffuse staining appeared | F-actin staining pattern ([6]; danazol 0.1 μM): diffuse F-actin staining throughout the cytoplasm | change of the VEGF stress fiber pattern ([6]; danazol 1.0 μM 30 minutes): showed fewer thick stress fibers, but focal points were seen on contact surfaces | F-actin staining pattern ([6]; danazol 1.0 μM): the diffuse staining persisted, but stress fibers and focal points around the perimeter of most cells were visible | change of the VEGF stress fiber pattern ([6]; danazol 10.0 μM 30 minutes): showed strong stress fiber development with focal points | F-actin staining pattern ([6]; danazol 10.0 μM): stress fiber development and focal points were seen | start of increase of ECIS compared to untreated cells, after treatment ([7]; 1.0 μM danazol alone): 1.5 to 2.0 h | persistence of increased ECIS ([7]; 1 μM of each compound, monitored for 90 hours): 5 h | period of greatest increase of ECIS [8]: 60 to 90 h | F-actin staining pattern ([9]; 15 minutes): perinuclear staining | F-actin staining pattern ([9]; 3 hours): diffuse staining throughout the cells with ruffled edges on many of the cells | F-actin staining pattern ([9]; 24 hours): staining similar to untreated controls | effect on S1P-induced cortical actin rings ([9]; danazol 1 μM with S1P 1 μM): seemed to enhance the cortical rings at 3 hours | effect on TNFα-induced stress fibers ([9]; danazol 1 μM with TNFα 1 ng/ml, all times): decreased the stress fiber formation and/or the thickness of the fibers at all times | effect on stress fiber development with TNFα ([10]; danazol 0.1 μM or 10 μM, TNFα 50 ng/ml): decreased the number of cells exhibiting stress fiber development | F-actin staining pattern ([10]; danazol 0.1 μM): diffuse staining throughout the cytoplasm | F-actin staining pattern ([10]; danazol 10.0 μM): stress fibers with multiple focal points | TER at 5 minutes ([11]; None 250.30): 280.03 | TER at 60 minutes ([11]; None 251.00): 313.06 | TER at 30 minutes ([11]; None 262.31): 311.56 | TER at 24 Hours ([11]; None 287.09): 348.35

From US20130005699A1, “METHODS AND PRODUCTS FOR TREATMENT OF DISEASES” (DMI ACQUISITION CORP., priority 2009, published 2013)
